# Experiments:
# [1] = test system: rats treated with (25-35) β-amyloid fragment; assay: Social Recognition test, (25-35) β-amyloid fragment rat model; type: in vivo; conditions: days 7, 10, 13
# Description: The results are from the experiment in which the suboccipital administration of 5.0 μg FGL per administration per rat was done at days 7, 10, and 13 after A-β-induced neurotoxicity. […] The number of animals in the groups varied from 4 to 22. The results were analysed using one-way ANOVA (F(2,27)=15.4, P<0.0001) and significance of results was contingent on achieving a p-value of less than 0.05 (**p<0.01), when compared to the A-β/V group (Newman-Keuls post-test). […] FGLcontrol as above.
# […] The number of animals per group varied from 4 to 5. The results were analysed using unpaired t-test and significance of results was contingent on achieving a p-value of less than 0.05 (*p<0.05), when compared to the A-β/N group. […]
# The present study employed a rat model, in which neurotoxicity and cognitive impairment were induced by the (25-35) β-amyloid peptide fragment (see Maurice T., et al. (1996) (Brain Res. 706:181-93) and Delobette S., et al. (1997) Eur J Pharmacol. 319:1-4). […] Short-term memory deficit in rats was evaluated using three different behavioural tests: the Social Recognition (Kogan et al, (2000) Hippocampus 10:47-56), Open Field (Cerbone and Sadile, (1994) Neurosci Biobehav Rev. 18:497-518; Vianna et al, (2000) Learn Mem. 7:333-40) and Y-maze (Clayton & Williams, (2000) Neurobiol Learn Mem. 74:135-45) tests. […]
# [2] = test system: rats treated with (25-35) β-amyloid fragment; assay: Neuronal density / cell death in brain sections, (25-35) β-amyloid fragment rat model; type: in vivo; conditions: days 7, 10, 13
# Description: The effect of 5.0 μg FGL per administration per rat, administered sub-occipitally on days 7, 10 and 13 after (25-35) β-amyloid (A-β) fragment-induced toxicity, on neuronal cell death in the CA3 zone of the rat hippocampus. The number of animals in the groups varied from 4 to 8.
# (§1) The number of animals in the groups varied from 4 to 8.
# as §1
# (§2) Behaviour of animals was evaluated using the Social Recognition test, the Open Field test or the Light-dark Discriminating γ-maze. On day 28-30 or day 51 after i.c.v. administration of the (25-35) β-amyloid fragment, the animals were sacrificed, and in selected studies, the brain tissue was collected, histological sections were immunostained with A-β specific antibodies and the amyloid-burden was calculated as a percentage of the A-βpositive area. In addition, the number of neurons in selected areas of brain-sections was calculated using a stereological approach.
# [3] = test system: rats treated with (25-35) β-amyloid fragment; assay: Light-dark Discriminating Y-maze with positive food reinforcement; type: in vivo, rat
# Description: The present study employed a rat model, in which neurotoxicity and cognitive impairment were induced by the (25-35) β-amyloid peptide fragment (see Maurice T., et al. (1996) (Brain Res. 706:181-93) and Delobette S., et al. (1997) Eur J Pharmacol. 319:1-4). Short-term memory deficit induced by the (25-35) β-amyloid peptide fragment in rat is of special importance to study, as it resembles one of the clinical manifestations of Alzheimer's disease. Short-term memory deficit in rats was evaluated using three different behavioural tests: the Social Recognition (Kogan et al, (2000) Hippocampus 10:47-56), Open Field (Cerbone and Sadile, (1994) Neurosci Biobehav Rev. 18:497-518; Vianna et al, (2000) Learn Mem. 7:333-40) and Y-maze (Clayton & Williams, (2000) Neurobiol Learn Mem. 74:135-45) tests. […]
# as §2
substance,measurement,setting,value
FGLd: MAP-type dendrimer of FGL; dendrimeric tetramer of the FGL peptide (EVYVVAENQQGKSKA),Social Recognition test,"[1]; Study 1, sub-occipital, tested at day 14",No effect
same,"Social Recognition test, time exploring a juvenile rat during the second trial","[1]; Study 2, sub-occipital 5 μg, vs β-amyloid fragment only",significantly reduced the increased time spent
same,neuro-histopathology evaluation of the CA3 area of hippocampus,"[2]; Study 1, sub-occipital",no significant effect
same,density of neurons in the CA3 zone of the hippocampus,"[2]; Study 2, sub-occipital 5 μg, β-amyloid only 15",22 neurons/mcm^2×10^−4
same,number of errors,"[3]; day 25, last day of training, sub-occipital, β-amyloid control 3.8",1.7
same,number of errors,"[3]; training days 21-24, vs β-amyloid fragment-treated control",no significant differences
